From article PMC10044445, “Tuning the Anthranilamide Peptidomimetic Design to Selectively Target Planktonic Bacteria and Biofilm” (Antibiotics, 2023)
Values after ≈ are worked out from the molar mass of the structure shown. Like-named read-outs stand apart in the source and are kept apart here.

Legend:
S. aureus [1] = test system: S. aureus; parameters: method as in PMID 30070287; settings: cited from earlier work
E. coli [2] = test system: E. coli; parameters: method as in PMID 30070287; settings: cited from earlier work
MRC-5 human fibroblasts [3] = test system: MRC-5 human fibroblasts; parameters: method as in PMID 30070287; settings: cited from earlier work
S. aureus [4] = experiment: Minimum inhibitory concentration, broth microdilution (CLSI); type: cell-based, Staphylococcus aureus; settings: Staphylococcus aureus; broth microdilution in MHB, 18–24 h
Protocol: (§1) The antimicrobial activity of the compounds was evaluated by a broth microdilution assay using the procedure described by CLSI. Briefly, bacteria were grown to mid-log phase in Muller Hinton broth (MHB) with shaking at 120 rpm and incubated at 37 °C for 12–16 h. Following incubation, bacteria were washed three times in PBS pH 7.4 at 3500 g for 10 min. After washing, bacteria were diluted with fresh MHB. The turbidity of the bacterial suspensions was adjusted so that OD660nm was 0.1, which gave 1 × 10^8 CFU/mL, and then further diluted to achieve 5 × 10^5 CFU/mL as a final bacterial concentration. Each compound was diluted (250–3.9 µM) through two-fold dilution. Wells in microtiter plates were loaded with 100 µL of inoculum containing 5 × 10^5 CFU/mL bacteria. Wells without any compound and containing only bacteria were used as negative controls (i.e., no inhibition of growth). Wells with media only were set as blank. The microtiter plate was wrapped with paraffin to prevent evaporation and incubated with shaking at 120 rpm and 37 °C for 18–24 h. After incubation, spectrophotometric readings were taken. The well without any bacterial growth and showing zero spectrophotometric reading was regarded as the MIC of the compounds.

E. coli [5] = experiment: as above; type: cell-based, Escherichia coli; settings: Escherichia coli; broth microdilution in MHB, 18–24 h
Protocol: as §1

E. coli K12 = experiment: Cytoplasmic membrane permeability (depolarization) assay with DiSC3(5); type: cell-based; settings: 2× MIC
Protocol: (§2) Compounds 13d (series I), 16b (series II), 19a (series III) and 19b (series III) were selected as representative examples of each series with strong antibacterial activities (particularly against S. aureus). As AMPs are known to be membrane-targeting, membrane permeability assays are frequently used to confirm the mode of action of peptidomimetics. In this assay, S. aureus and E. coli were treated with the active compounds in the presence of the membrane potential-sensitive cyanine dye 3,3′-dipropylthiadicarbocyanine iodide (DiSC3(5)). Perturbation of the membrane by the compounds leads to loss of the membrane potential gradient (depolarization), causing the dye to be released into the medium and resulting in an increase in fluorescence intensity.
(§3) The method was adopted from Wu et al. with slight modifications. Bacterial cytoplasmic membrane permeability was determined using membrane potential sensitive dye diSC3-5 (3,3′-dipropylthiadicarbocyanine iodide) which penetrates inside bacterial cells depending on the membrane potential gradient of the cytoplasmic membrane. Bacteria were grown in MHB to mid-log phase by incubating with shaking at 37 °C for 18–24 h. Following incubation, bacteria were washed with 5 mM HEPES containing 20 mM glucose pH 7.2 and resuspended in the same buffer to an OD600 0.05–0.06 which gave 1 × 10^7 CFU/mL. The dye diSC3-5 was added at 4 µM to the bacterial suspension. The suspensions were incubated at room temperature for 1 h in the dark for maximum dye take-up by the bacterial cells. Then, 100 mM KCl was added to balance the K+ outside and inside the bacterial cell to prevent further uptake or outflow of the dye. For Gram-negative bacteria, 0.5 mM EDTA was used to destabilize the lipopolysaccharides-Mg^2+-Ca^2+ complex to help in dye penetration without affecting bacterial growth. A total of 100 µL of bacterial suspension was added to 96-well microtiter plate and with equal volume of antimicrobial compounds. DMSO (20%) was set as a positive control while dye and only bacterial cells were set as a negative control. Fluorescence was measured with a luminescence spectrophotometer at 3 min intervals at an excitation wavelength of 622 nm and an emission wavelength of 670 nm.
(§4) Figure 2 Cytoplasmic membrane depolarization of S. aureus 38 and E. coli K12 by 13d, 16b, 19a, 19b, as assessed by release of the membrane potential-sensitive dye DiSC3(5) measured spectroscopically at λex = 622 nm and λem = 670 nm at 2× MIC concentration. Data are presented as means (±SD) of three independent repeats. 20% DMSO was used as a positive control.

S. aureus 38 = experiment: as above; type: cell-based; settings: 2× MIC
Protocol: as §2, §3, §4

S. aureus biofilms = experiment: Disruption of established biofilm, crystal violet staining; type: cell-based; settings: 24 h treatment
Protocol: (§5) Bacteria in biofilms are 10–1000 times more resistant to conventional antibiotics than planktonic bacteria. Moreover, biofilms are insensitive to antiseptics and many host immune responses. Since up to 80% of all microbial infections are biofilm-related, an effective antibacterial agent should also be able to disrupt established biofilms to tackle bacterial infections.
(§6) Bacterial cultures (S. aureus and E. coli) were grown in MHB media overnight at 37 °C with shaking at 120 rpm. Cultures were diluted (1:20) in an MHB medium and 200 μL aliquots were dispensed to flat bottom 96-well plate wells (Sarstedt, Mawson Lakes, Australia). Cultures were supplemented with varying concentrations of synthetic compounds dissolved in DMSO. Biofilm was grown in a 96-well plate for 24 h followed by the addition of synthetic compounds and incubated further for 24 h. Plates were sealed with self-adhesive microplate sealers (TopSeal-A, PerkinElmer) to allow air diffusion and to prevent condensation. Biofilms adhered on polystyrene substratum were quantified by crystal violet staining as described previously. The experiment was performed in triplicate.
Figure 4 Disruption of established biofilms of S. aureus after 24 h treatment with 1× to 8× MIC concentrations of compounds 13d, 16b, 19a, 19b. The positive control represents the pre-established biofilms without any compounds. Error bars indicate the standard error of the mean (SEM) of three independent experiments.

E. coli biofilms = experiment: as above; type: cell-based; settings: 24 h treatment; for disruption of established E. coli biofilm (in words): 1× to 8× MIC
Protocol: as §5, §6
Figure 5 Disruption of established biofilm of E. coli after 24 h treatment with 1× to 8× MIC concentrations of compounds 13d, 16b, 19a, and 19b. The negative control represents pre-established biofilms without any compounds. Error bars indicate the standard error of the mean (SEM) of three independent experiments.

MRC-5 human fibroblasts [6] = experiment: Toxicity assay, Alamar Blue; type: cell-based; settings: MRC5; MRC-5 human fibroblasts, 72 h drug incubation, Alamar Blue
Protocol: Normal human lung fibroblasts MRC-5 were cultured in minimal essential medium (MEM, Invitrogen) supplemented with 10% foetal calf serum (FCS), 1% L-glutamine–penicillin–streptomycin, 2% sodium bicarbonate, 1% non-essential amino acids (NEAA), and 1% sodium pyruvate. The cell line was maintained at 37 °C in 5% CO2 as an adherent monolayer and was passaged upon reaching confluence by standard cell culture techniques. MRC-5 cells were seeded at 2 × 10^4 cells per well in 96-well plates to ensure full confluence (quiescence). Cells were treated for 24 h after seeding with 0.1 to 1000 μM of compounds. After 72 h of drug incubation, the treated media was replaced with fresh media containing 10% Alamar Blue and the cells were incubated for another 6 h. The metabolic activity was detected by spectrophotometric analysis by assessing the absorbance of Alamar blue as previously described by Pasquier et al. Cell proliferation was determined and expressed as a percentage of untreated control cells. The determination of IC50 values was performed using GraphPad Prism 6 (San Diego, CA, USA). Each experiment was performed in triplicate and was repeated in three independent experiments.

[7] = test system: Bacillus subtilis strain BS23; experiment: Membrane integrity study, epifluorescence microscopy (atpA-GFP); type: cell-based; settings: 50 μM, 45 min
Protocol: The mechanism of action of compounds 16b, 19a, and […] was further studied using Bacillus subtilis strain BS23, which contains a fusion of green fluorescence protein (GFP) to the α-subunit of the membrane-localized ATP synthase. In the assay, if the compounds damage the membrane, the green fluorescence will change from a uniform distribution to a clustered distribution. Epifluorescence microscopy was used to image the changes in the cells.
Bacillus subtilis BS23 (atpA-GFP) was grown in LB (10 g/L Tryptone, 5 g/L Yeast Extract, 5 g/L NaCl) supplemented with 0.5% (w/v) xylose at 37 °C, to an OD600 of 0.3 and then treated with 50 μM of the AMP mimics, 10 μg/mL of colistin or 0.25% (v/v) DMSO (vehicle control). The cells were grown for a further 45 min before being examined by epifluorescence microscopy. Micrographs were background subtracted, merged, and aligned in images.
Figure 3 Epifluorescence microscopy images showing membrane integrity of B. subtilis strain BS23 treated with colistin (10 µg/mL) and compounds 16b, 19a, and 19b (50 µM).

| SMILES | MIC S. aureus (S. aureus [1]; Table 2, parent compound) [µM] | MIC90 S. aureus (S. aureus [1]; value of earlier paper) [µM] | MIC E. coli (E. coli [2]; Table 2, parent compound) [µM] | MIC90 E. coli (E. coli [2]; value of earlier paper) [µM] | IC50 (MRC-5 human fibroblasts [3]) [µM] | MIC90 (S. aureus [4]) [µM] | MIC90 (E. coli [5]) [µM] | cytoplasmic membrane depolarization (DiSC3(5) release) (E. coli K12) | cytoplasmic membrane depolarization (DiSC3(5) release) (S. aureus 38) | disruption of established S. aureus biofilm (S. aureus biofilms; 4× MIC (15.6 µM)) [%] | disruption of established S. aureus biofilm (S. aureus biofilms; 8× MIC (31.2 µM)) [%] | disruption of established E. coli biofilm (in words) (E. coli biofilms) | disruption of E. coli biofilm mass (E. coli biofilms; 2× MIC (62.4 µM)) [%] | IC50 (MRC-5 human fibroblasts [6]) [µM] | membrane damage (clustering of GFP fluorescence) [7] |
| --- | --- | --- | --- | --- | --- | --- | --- | --- | --- | --- | --- | --- | --- | --- | --- |
| NCCNC(=O)[C@H](Cc1c[nH]c2ccccc12)NC(=O)c1cc(Br)ccc1NC(=O)c1ccc2ccccc2c1 [Compound 12a] | 3.9 (≈ 2.33 µg/mL) | 3.9 (≈ 2.33 µg/mL) | > 125 | > 125 | < 20 |  |  |  |  |  |  |  |  |  |  |
| COc1cc2ccccc2cc1C(=O)Nc1ccc(Br)cc1C(=O)N[C@@H](Cc1c[nH]c2ccccc12)C(=O)NCCCN [Compound 13d, (S)-N-(2-((1-((3-aminopropyl)amino)-3-(1H-indol-3-yl)-1-oxopropan-2-yl)carbamoyl)-4-bromophenyl)-3-methoxy-2-naphthamide] |  |  |  |  |  | 3.9 (≈ 2.51 µg/mL) | 62.5 (≈ 40.2 µg/mL) | relatively inactive | relatively inactive | 75 | 99 | significant disruption | 59 |  |  |
| NCCNC(=O)[C@H](Cc1c[nH]c2ccccc12)NC(=O)c1cc(-c2ccc3ccccc3c2)ccc1N [Compound 16b, (S)-2-amino-N-(1-((2-aminoethyl)amino)-3-(1H-indol-3-yl)-1-oxopropan-2-yl)-5-(naphthalen-2-yl)benzamide] |  |  |  |  |  | 3.9 (≈ 1.92 µg/mL) | 31.2 (≈ 15.3 µg/mL) |  |  | 93 |  | not effective |  | 24.6 | caused membrane damage |
